Earlier results in patent publication US3993756A, “Antilipemic agent containing a soybean oil fraction” (priority 1975, dated 1976).

Key:
[1] = tested on: cholesterol level in blood serum; settings: for effect on cholesterol level in blood serum: in vivo
[2] = in vivo

Row | SMILES | effect on cholesterol level in blood serum [1] | absorption by the body [2] | liver or kidney troubles ([1]; 20 to 30 g per day, long periods)
1 | CC[C@H](/C=C/[C@@H](C)[C@H]1CC[C@H]2[C@@H]3CC=C4C[C@@H](O)CC[C@]4(C)[C@H]3CC[C@]12C)C(C)C [stigmasterol] | effective for lowering the cholesterol level in blood serum |  | 
2 | CC[C@H](CC[C@@H](C)[C@H]1CC[C@H]2[C@@H]3CC=C4C[C@@H](O)CC[C@]4(C)[C@H]3CC[C@]12C)C(C)C [β-sitosterol] | effective for lowering the cholesterol level in blood serum | low absorption | inviting liver or kidney troubles
